# Measured values as given in publication PMC10535880, “Caco-2 Cell Sheet Partially Laminated with HT29-MTX Cells as a Novel In Vitro Model of Gut Epithelium Drug Permeability” (Pharmaceutics, 2023).
# Read-outs that look alike come from different tables or passages of the source.
# Assays:
# HT29-MTX-E12 cells = system: HT29-MTX-E12 cells; parameters: method as in PMID 23869232; details: added during the first six days of semi-wet interface with mechanical stimulation; 28 days of incubation; without addition 3–5 μm; cited from earlier work
# [1] = system: Caco-2/HT29-MTX partially laminated model
# Description: In the short-term culture model, Caco-2 monolayers were prepared according to the protocol of the Corning® BioCoat^TM Intestinal Epithelial Cell Environment Kit (Corning Inc., Corning, NY, USA) with slight modifications with reference to the procedure reported by Yamashita et al. [20]. Briefly, Caco-2 cells were seeded at a density of 1 × 10^5 cells/insert onto 24-well Transwell® inserts (0.4 μm pore size, Corning Inc.) using a basal seeding medium. After 24 h of incubation (37 °C, 5% CO2), the basal seeding medium was replaced with the enterocyte differential medium. After an additional 72 h of incubation, a cell monolayer was formed, and the integrity was evaluated via TEER using an epithelial volt-ohmmeter (EVOM2, World Precision Instruments Inc., Sarasota, FL, USA). In the long-term culture model, Caco-2 cells were seeded at a density of 1 × 10^4 cells/insert onto 24-well Transwell® inserts using DMEM containing 10% FBS, 1% nonessential amino acids, and 1% penicillin-streptomycin for 21 days.
# (§1) When preparing the partially laminated model, a Caco-2 monolayer with a TEER value ≥ 2000 Ω·cm^2 was formed first, and HT29-MTX cells were then laminated onto the Caco-2 monolayer at ratios of 1:9, 3:7, and 5:5, followed by incubation for the predetermined time. As for the coculture model, Caco-2 and HT29-MTX cells were seeded simultaneously in the different ratios and incubated for the predetermined time to form a hybrid monolayer.
# (§2) Briefly, the culture medium on both sides of the Transwell® insert was replaced with HBSS and washed twice with prewarmed HBSS. […] The Papp coefficients of the model drugs were calculated using the following equation [19, 21]:(1) Papp=dQ/dt×1/A.C0 where dQ/dt is the velocity of solutes transported across the culture cell sheet in time, C0 is the concentration of the solute in the apical compartment at time zero, and A is the cross-sectional area of the cell sheet in contact with the apical solution.
# The supernatant was collected as a sample for LC-MS/MS. […]
# [2] = system: Caco-2/HT29-MTX coculture model
# Description: as §1, §2
Papp compared to that in the Caco-2 monolayer ([1]; 5:5 ratio of Caco-2/HT29-MTX),Papp compared to that in the Caco-2 monolayer ([1]; 7:3 ratio of Caco-2/HT29-MTX),Papp compared to that in the Caco-2 monolayer ([1]; 9:1 ratio of Caco-2/HT29-MTX),Papp compared to that in the Caco-2 monolayer model [2],Papp compared to that of the HT29-MTX monolayer ([2]; independent of the Caco-2:HT29-MTX ratio),Compound,mucus layer thickness (HT29-MTX-E12 cells)
,,,,,"C[C@H](NC(=O)Cc1cc(F)cc(F)c1)C(=O)NC(C(=O)OC(C)(C)C)c1ccccc1 (stereo partly drawn) [N-[(3,5-difluorophenyl)acetyl]-L-alanyl-2-phenyl]glycine-1,1-dimethylethyl ester]",25–30 μm
1.5 times,1.5 times,similar,significantly higher,similar,Lucifer yellow,
